This is an account of results in article PMC7156612, “Olinciguat, an Oral sGC Stimulator, Exhibits Diverse Pharmacology Across Preclinical Models of Cardiovascular, Metabolic, Renal, and Inflammatory Disease” (Frontiers in Pharmacology, 2020).

Data set [1] has as its system obese ZSF1 rats. The data set can be described thus: ZSF1 rat model of metabolic syndrome and diabetic nephropathy. It is filed as in vivo. As for the experimental part: Lean (n=8, 370–420 g, 15 weeks) and obese (n=32, 500–630 g, 15 weeks) male ZSF1 rats were studied. Rats were treated with enalapril to reflect standard of care drug treatment for patients with diabetic kidney disease. Dose modeling based on allometric scaling relationships estimated that a 10 mg/day enalapril dose in humans (within usual dose range of 10–40 mg based on prescribing information) corresponds to 1 mg/kg/day in rats ([Nair and Jacob, 2016]). To measure hemodynamics in freely moving animals, ZSF1 obese rats were implanted with telemetry transmitters (HD-S10, Data Sciences International) at 9–10 weeks of age, as described above.
The study included a 10-day pretreatment period and a 10-week treatment period. There were five groups of rats in the study. The lean ZSF1 control group (lean control, n=8) and one obese group (obese control, n=8) were fed normal chow and drinking water throughout the 10-day pretreatment period and the 10-week treatment period. Three groups of obese rats were treated with enalapril in drinking water (equivalent to 3 mg/kg/day) throughout the 10-day pretreatment period and the 10-week treatment period. During the treatment period, these enalapril-treated obese rats were administered normal chow (ENP, n=8) or chow containing olinciguat targeting the dose of 10 mg/kg/day (ENP+OLI10, n=8) or 30 mg/kg/day (ENP+OLI30, n=8). Blood and 24-h urine samples were obtained from all animals at baseline (immediately prior to initiation of enalapril treatment), the end of the 10-day pretreatment period (Day 10) and at week 5 and week 10 of the treatment period. Plasma samples were obtained from all olinciguat-treated animals for measurement of olinciguat exposure at week 10. During week 9 of treatment, rats were fasted for 16 h overnight prior to determination of fasting blood glucose using the AlphaTRAK (Abbott) glucose monitoring system. Body weight was measured once every other week. At the end of the study, rats were anesthetized and perfused via the left ventricle with heparinized PBS (1 U/ml heparin) containing IBMX (1 mM). Organs were collected and weighed, and plasma was collected in EDTA tubes. For serum, blood was collected in serum separator tubes, maintained at room temperature for at least 30 min and centrifuged at 6,000 rpm for 10 min, and then stored at −80°C until analysis. Urine and serum samples were analyzed using the Randox Daytona Clinical Chemistry Analyzer (Randox, Kearneysville, WV) for urine protein, serum cholesterol and serum triglycerides. All measurements were performed in accordance with manufacturer's instructions.
For histology, one kidney from each rat was fixed in 10% formalin, then embedded in paraffin. Slides were prepared and stained with hematoxylin and eosin (H&E) and periodic-acid Schiff (PAS) for light microscopic analysis. Kidney sections were evaluated for the presence of glomerular pathology, tubular damage, interstitial inflammation, interstitial fibrosis, and vascular alterations. Severity-based scoring based on these evaluations was performed by a trained pathologist.
For the ZSF1 experiment, data are expressed as mean ± standard error of the mean (SEM).
In the ZSF1 study, change from baseline NT-proBNP, week 10 heart, kidney, and liver weight, urine volume, cholesterol, triglycerides, glucose, and renal histopathology sum score were analyzed by one-way ANOVA corrected for multiple comparisons using Tukey's method. Statistically significant differences vs the obese control and vs the ENP group are indicated in the results. MAP and UPE were analyzed by an ordinary two-way ANOVA with timepoint and treatment group as independent variables, followed by a Tukey's multiple comparisons test. Within each treatment group, significant differences vs baseline are indicated in the results. At week 10, statistically significant differences vs the obese control and vs the ENP control are also indicated in the results.

The test system of data set [2] is obese ZSF1 rats. Set-up: method as in Bilan et al., 2011. The settings on record: 8-week old obese ZSF1 rats, enalapril 60 mg/kg/day in drinking water for 24 weeks; ref Bilan et al., 2011; cited from earlier work.
On the set-up of data set [3]: method as in Tobin et al., 2018. The conditions noted are these: ref Tobin et al., 2018; cited from earlier work.
For data set [4], the system named is pulmonary artery smooth muscle from idiopathic pulmonary arterial hypertension (PAH) patients. Also on record: method as in Yamamura et al., 2017. The conditions noted are these: ref Yamamura et al., 2017, read-out: IC50, inhibition of proliferation; cited from earlier work.
For data set [5], the system named is pulmonary artery smooth muscle from healthy subjects. Also on record: method as in Yamamura et al., 2017. The conditions noted are these: ref Yamamura et al., 2017; cited from earlier work.
Details of data set [6]: method as in Forgue et al., 2006. The settings on record: healthy volunteers, after 10 days of dosing at 20 mg QD; ref Forgue et al., 2006; read-out: Cmax plasma concentration; cited from earlier work.
Data set [7] has as its system vascular smooth muscle cells (VSMC) from rat aorta. The data set can be described thus: Rat aorta vascular smooth muscle cell proliferation (3H-thymidine incorporation). In kind it is cell-based. The settings on record: tadalafil alone at or below 10 µM; 5% FBS, 10 µM DETA. As for the experimental part:
We explored the concentration response of olinciguat, tadalafil, and olinciguat in the presence of 1 μM tadalafil on rat aorta vascular smooth muscle proliferation, Tadalafil was used because it is a once-daily PDE5 inhibitor that, like the three-times-daily PDE5 inhibitor sildenafil, is approved for treatment of PAH and ED. Vascular smooth muscle cells (VSMC) from rat aorta (Lonza, R-ASM-580) were plated into a 96-well plate at 15,000 cells per well in DMEM:F12 containing 20% FBS and GA-1000 ([Gentamicin, Amphotericin B], Lonza, CC-40863) for 24 h at 37°C. Medium was removed and cells were washed once with 100 μl DMEM:F12 before adding 100 μl of DMEM:F12 and incubating for 24 h to induce quiescence. Cells were then cultured for 24 h in DMEM:F12 supplemented with 5% FBS, in the presence of test articles (vehicle, olinciguat, tadalafil) with 10 µM DETA. In the last 6 h, 0.2 μCi of ^3H-thymidine (American Radiolabeled Chemicals, ART 0178A) was added to each well to measure DNA synthesis by thymidine incorporation. Cells were washed once with HBSS and then trypsinized and transferred into FB filter plates (Millipore, MADVNOB). A rapid-filtration technique using a filtration apparatus (Millipore, MAVM0960R) with vacuum aspiration was used to harvest and rinse labeled cells (6× with 0.2 ml of chilled water). The radioactivity bound to the filters was counted with 80 µl of liquid scintillant (PerkinElmer, UltraGold MV, 6013159) in a scintillation counter (Perkin Elmer Microbeta instrument).
In the vascular smooth muscle cell proliferation experiment, a comparison between the IC50's for olinciguat alone vs oliniciguat in the presence of 1 µM tadalafil was performed by a two-tailed t-test using Log EC50 best fit values and SEs determined from a four-parameter nonlinear curve fit, assuming n=60 degrees of freedom.
(Incorporation of labelled thymidine or its analogues reports DNA synthesis.)

Each structure is given as a SMILES string. Entries after “also recorded” stand apart in the source; their conditions may differ.

Turning to `CCOC(=O)[C@H](CCc1ccccc1)N[C@@H](C)C(=O)N1CCC[C@H]1C(=O)O` [ENP, reference compound], the “MAP at Week 10” value with obese ZSF1 rats [1] (obese ZSF1, enalapril 3 mg/kg/day in drinking water, obese control 122 ± 1) amounted to 111 ± 1 mmHg. The same molecule came in with a fasting blood glucose in the data set with obese ZSF1 rats [1] (obese ZSF1, enalapril 3 mg/kg/day, week 9, obese control 279.4 ± 36.5) of 276.5 ± 30.9 mg/dL. Moreover, the “change from baseline NT-proBNP” value in the data set on obese ZSF1 rats [1] (obese ZSF1, enalapril 3 mg/kg/day, baseline to end of treatment, obese control +86 ± 22) was “+44 ± 28 pg/ml”. Moreover, in the data set with obese ZSF1 rats [1] (obese ZSF1, enalapril 3 mg/kg/day, obese control 9.7 ± 0.2, lean 7.4 ± 0.07), the total kidney weight stood at 9.5 ± 0.3 g/kg BW. Besides, the “renal pathology sum score” value with obese ZSF1 rats [1] (obese ZSF1, enalapril 3 mg/kg/day, obese control 14.6 ± 0.2, p=0.025 vs obese control) is on record as 12.2 ± 0.4. This molecule also yielded a liver weight with obese ZSF1 rats [1] (obese ZSF1, enalapril 3 mg/kg/day, obese control 72.0 ± 1.9) of 70.5 ± 1.1 g/kg BW. Besides, the “serum cholesterol at week 10” value in the data set with obese ZSF1 rats [1] (obese ZSF1, enalapril 3 mg/kg/day, obese control 428.6 ± 12.7) amounted to 383 ± 9.8 mg/dL. Also, in the data set with obese ZSF1 rats [1] (obese ZSF1, enalapril 3 mg/kg/day, obese control 4913 ± 487.1), the “serum triglycerides at week 10” value was found to be 3850 ± 326.0 mg/dL. Besides, the “increase of proteinuria over 10-week treatment period” value in the data set on obese ZSF1 rats [1] (obese ZSF1, enalapril alone 3 mg/kg/day, obese controls 153%) turned out to be 168%. Further, the “kidney weight, percent greater than in the lean control group” value with obese ZSF1 rats [1] (obese ZSF1 treated with enalapril) is recorded as 28%. The “reduction in MAP” value in the data set on obese ZSF1 rats [2] is given as ~ 50 mmHg.
Take `OC(CNc1nc(-c2cc(-c3ccon3)n(Cc3ccccc3F)n2)ncc1F)(C(F)(F)F)C(F)(F)F` [praliciguat]: the volume of distribution in data set [3] was 10.5 L/kg.
On to `CN1CC(=O)N2[C@H](c3ccc4c(c3)OCO4)c3[nH]c4ccccc4c3C[C@@H]2C1=O` [tadalafil], for which, in data set [4], the IC50 is 4.5 µM. Further, in data set [5], the effect on proliferation entry was “no effect”. Also, the Cmax in data set [6] was 1000 nM. Further, in data set [7], the “inhibition of VSMC proliferation by tadalafil alone” value was “did not inhibit vascular smooth muscle cell proliferation; also recorded: did not inhibit VSMC proliferation”.
